Reference: PMC8234218, “In Vitro and In Vivo Efficacies of the Linear and the Cyclic Version of an All-D-Enantiomeric Peptide Developed for the Treatment of Alzheimer’s Disease” (International Journal of Molecular Sciences, 2021)
Where two headings read alike, the source gives them in different places. Where a SMILES comes first, the peptide text is derived from it. [ ]: non-standard residue; d: D form.

How the values were obtained:
[1] = Proteolytic stability in simulated intestinal fluid (SIF); assay type: in vitro ADME
Method: Both compounds have already been extensively studied with respect to their in vivo pharmacokinetic profiles. Here, we performed some additional test to investigate the proteolytic stability of the compounds in simulated gastric (SGF) and intestinal fluid (SIF) and human plasma and human liver microsomes. The experiments were performed as described previously. According to the guidelines of the European Pharmacopoeia 7.0, SGF and SIF were prepared. Plasma was purchased from Biotrend with K3-EDTA as an anticoagulant (Biotrend, Köln, Germany). Human liver microsomes were pooled from different donors and purchased from Sekisui XenoTech (Kansas City, KS, USA). In order to determine whether the compounds RD2D3 and cRD2D3 are stable or would be metabolized, 150 µM of each compound was incubated in triplicate for defined time points slightly shaking at 37 °C in the media described above (SGF and SIF: 4 and 8 h, plasma: 8, 24 and 48 h and microsomes: 8 and 24 h). Incubation was stopped by precipitating the proteins. For this, 3% trichloroacetic acid (w/v) was added to the respective sample under vortexing followed by a centrifugation step (14,000× g at 4 °C for 5 min). For analysis, supernatants containing the compounds were collected. The precipitated media without compound was used as a control and as reference for the quantification served each medium with compound where the reaction was stopped immediately by precipitating the proteins. All samples were analyzed by RP-HPLC as previously described.

Aβ(1-42) = molecular target: T1, Aβ(1-42) (Homo sapiens, UniProt P05067); experiment: SPR, Aβ(1-42) immobilized, D-peptide as analyte; assay type: binding; conditions: SPR Biacore T200, Aβ(1-42) immobilized on CM-5 chip by amine coupling, D-peptide analyte 0.625-20 µM, multicycle, 10 mM HEPES + 50 mM NaCl pH 7.4, 25 °C, steady-state Langmuir 1:1 fit (Fig. 1a)
T1 construct: Synthetic Aβ(1-42) and (Gln^22, Asn^23)-Amyloid β-Protein (1-40) (D/I Aβ) with >95% purity were purchased; purchased Bachem (Bubendorf, Switzerland); host or cells: chemical synthesis
T1 sequence (P05067 672-713): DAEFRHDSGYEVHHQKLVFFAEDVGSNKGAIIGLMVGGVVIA
Method: The dissociation constant (KD) of RD2D3 and cRD2D3 binding to Aβ(1-42) and D/I Aβ was determined by SPR spectroscopy using a Biacore T200 instrument (Biacore, GE Healthcare, Uppsala, Sweden). Aβ(1-42) or D/I Aβ was used as the ligand, while RD2D3 and cRD2D3 were used as the analyte or vice versa.
By using Aβ(1-42) or D/I Aβ as a ligand, it was immobilized onto a series S CM-5 sensor chip (GE Healthcare, Uppsala, Sweden) by amine coupling. In short, the flow cells were activated by a mixture of 50 mM N-hydroxysuccinimide (NHS) and 16.1 mM N-Ethyl-N’-(dimethylaminopropyl)carbodiimide (EDC) (XanTec, Düsseldorf, Germany) for 7 min. Aβ(1-42) or D/I Aβ were dissolved to a final concentration of 50 µg/mL in 10 mM sodium acetate pH 5 (AppliChem, Darmstadt, Germany) and injected over one of the activated flow cells to a final signal of 1700 RU. After the immobilization, the ligand and reference flow cells were quenched by injecting 1 M ethanolamine pH 8.5 (XanTec, Düsseldorf, Germany) for 7 min. […] The peptides were diluted in the running buffer to the following concentrations: 20 µM, 10 µM, 5 µM, 2.5 µM, 1.25 µM and 0.625 µM. All samples were injected over the flow cells for 180 s, followed by a dissociation step of 600 s with running buffer. Regeneration of the sensor chip was accomplished by a 45 s injection of 2 M of guanidinium hydrochloride (AppliChem, Darmstadt, Germany). […]

[2] = Body weight in i.p. treatment study; assay type: in vivo; conditions: Tg-SwDI mice, mean ± SEM; for Body weight before treatment: 11 months old, before 28 d i.p. osmotic minipump 8 mg/kg daily; for Body weight after treatment: after 28 d i.p. osmotic minipump 8 mg/kg daily
Method: Eleven months old Tg-SwDI were treated for 28 d i.p. by use of an osmotic minipump (Alzet osmotic pumps, Modell 1004, Charles River, Wilmington, MS, USA) with a daily dosage of 8 mg/kg peptide (RD2D3 (n = 14) or cRD2D3 (n = 12)) in PBS (pH 7.4) or vehicle (Placebo (n = 13), PBS, pH 7.4). The minipumps and the i.p. application route have been used to achieve continuous application of the study drug. After surgery, mice were monitored daily the following three days and twice each week until the end of the treatment. A loss of body weight and severe conspicuities were defined as exclusion criteria. No mouse was affected by these exclusion criteria. During the last one and a half weeks of treatment, different behavioral tests (nesting behavior, marble burying, open field test and MWM) were conducted with all mice.

Aβ(1-42)-oligomers = molecular target: T2, Aβ(1-42)-oligomers (Homo sapiens, UniProt P05067); experiment: QIAD assay, Aβ(1-42) oligomer elimination; assay type: biochemical; conditions: 80 µM Aβ(1-42) preincubated 2 h, 20 µM D-peptide, 30 min coincubation, density gradient fractions 4-6, RP-HPLC UV 214 nm, N = 2-5
T2 construct: Synthetic Aβ(1-42) and (Gln^22, Asn^23)-Amyloid β-Protein (1-40) (D/I Aβ) with >95% purity were purchased; purchased Bachem (Bubendorf, Switzerland); host or cells: chemical synthesis
T2 sequence (P05067 672-713): as above
Method: According to Brener et al., a QIAD assay was performed in order to evaluate the Aβ(1-42) or D/I Aβ oligomer elimination efficacies of RD2D3 and cRD2D3 [18]. In short, 80 µM lyophilized Aβ(1-42) or 40 µM D/I Aβ was preincubated for 2 h or 15 min, respectively, to enrich Aβ-oligomers. Afterwards, either 20 µM RD2D3 or cRD2D3 for Aβ(1-42) or 10 µM RD2D3 or cRD2D3 for D/I Aβ were added to the preincubated solution and coincubated for additional 30 min. Subsequently, the samples were loaded on the top of a density gradient (5–50% (w/v) iodixanol (OptiPrep, Sigma-Aldrich, Darmstadt, Germany)) followed by an ultracentrifugation step (3 h at 4 °C and 259000× g (Optima TL-100, Beckman Coulter, Brea, CA, USA)). Following the ultracentrifugation, 14 fractions (140 µL each) were harvested by upward displacement. Fraction 15 contains the dissolved pellet in 6 M guanidine hydrochloride solution. Top fractions 1–2 contained Aβ-monomers, fractions 4–6 contained the Aβ-oligomers, which are of special interest, and the bottom fractions 11–14 contained high molecular weight (co-)precipitates or aggregated Aβ. Aβ(1-42) or D/I Aβ concentrations of each fraction were determined via analytical RP-HPLC and UV absorbance detection at 214 nm.

CC(C)C[C@@H](NC(=O)[C@@H](CCCNC(=N)N)NC(=O)[C@H](NC(=O)[C@@H](CCCNC(=N)N)NC(=O)[C@H]1CCCN1C(=O)[C@@H](CCCNC(=N)N)NC(=O)[C@@H](CCCNC(=N)N)NC(=O)[C@@H](CCCNC(=N)N)NC(=O)[C@@H](CCCNC(=N)N)NC(=O)[C@@H](CCCNC(=N)N)NC(=O)[C@@H](CCCNC(=N)N)NC(=O)[C@@H](CC(N)=O)NC(=O)[C@@H](Cc1c[nH]cn1)NC(=O)[C@H](NC(=O)[C@@H](Cc1c[nH]cn1)NC(=O)[C@@H](CC(C)C)NC(=O)[C@H](NC(=O)[C@H]1CCCN1)[C@H](C)O)[C@H](C)O)[C@H](C)O)C(=O)N[C@H](Cc1c[nH]cn1)C(=O)N[C@@H](C(=O)N[C@H](Cc1c[nH]cn1)C(=O)N[C@H](CCCNC(=N)N)C(=O)N[C@H](CC(N)=O)C(=O)N[C@H](CCCNC(=N)N)C(N)=O)[C@H](C)O [RD2D3] (H-[dP][dT][dL][dH][dT][dH][dN][dR][dR][dR][dR][dR][dR][dP][dR][dT][dR][dL][dH][dT][dH][dR][dN][dR]-NH2)
remaining at 4 h, 150 µM ([1]; simulated intestinal fluid): 100% | remaining at 8 h, 150 µM ([1]; simulated intestinal fluid): 93.5% | Kd (Aβ(1-42)): 7.01 ± 0.31 µM | Body weight before treatment [2]: 33.2 ± 2.6 g | Body weight after treatment [2]: 34.3 ± 0.6 g

CC(C)C[C@H]1NC(=O)[C@@H](CCCNC(=N)N)NC(=O)[C@@H]([C@H](C)O)NC(=O)[C@@H](CCCNC(=N)N)NC(=O)[C@H]2CCCN2C(=O)[C@@H](CCCNC(=N)N)NC(=O)[C@@H](CCCNC(=N)N)NC(=O)[C@@H](CCCNC(=N)N)NC(=O)[C@@H](CCCNC(=N)N)NC(=O)[C@@H](CCCNC(=N)N)NC(=O)[C@@H](CCCNC(=N)N)NC(=O)[C@@H](CC(N)=O)NC(=O)[C@@H](Cc2c[nH]cn2)NC(=O)[C@@H]([C@H](C)O)NC(=O)[C@@H](Cc2c[nH]cn2)NC(=O)[C@@H](CC(C)C)NC(=O)[C@@H]([C@H](C)O)NC(=O)[C@H]2CCCN2C(=O)[C@@H](CCCNC(=N)N)NC(=O)[C@@H](CC(N)=O)NC(=O)[C@@H](CCCNC(=N)N)NC(=O)[C@@H](Cc2c[nH]cn2)NC(=O)[C@@H]([C@H](C)O)NC(=O)[C@@H](Cc2c[nH]cn2)NC1=O [cRD2D3] (cyclo([dH][dN][dR][dR][dR][dR][dR][dR][dP][dR][dT][dR][dL][dH][dT][dH][dR][dN][dR][dP][dT][dL][dH][dT]))
remaining at 4 h, 150 µM ([1]; simulated intestinal fluid (SIF), simulated intestinal fluid (Eur. Pharmacopoeia 7.0), 150 µM, 37 °C, 4 h, TCA precipitation, RP-HPLC, referenced to immediately stopped sample, mean of three independent experiments, read-out: Stability in SIF, 4 h): 96% | remaining at 8 h, 150 µM ([1]; simulated intestinal fluid (SIF), simulated intestinal fluid (Eur. Pharmacopoeia 7.0), 150 µM, 37 °C, 8 h, TCA precipitation, RP-HPLC, referenced to immediately stopped sample, mean of three independent experiments, read-out: Stability in SIF, 8 h): 87.2% | Kd (Aβ(1-42)): 10.4 ± 0.61 µM | Elimination of toxic Aβ(1-42)-oligomers (QIAD) (Aβ(1-42)-oligomers): 80% | Body weight before treatment [2]: 35.1 ± 1.4 g | Body weight after treatment [2]: 33.2 ± 1.0 g
